Structures can show the parent of a compound that is named as a salt.
Target: T1, human recombinant 6His-Nterm SHP2 full-length (Thr2-Arg593) (Homo sapiens, UniProt Q06124)
T1 construct: 6His-Nterm SHP2 full-length (Thr2-Arg593, R&D system); 6His (N); purchased R&D system
T1 sequence (Q06124 2-593): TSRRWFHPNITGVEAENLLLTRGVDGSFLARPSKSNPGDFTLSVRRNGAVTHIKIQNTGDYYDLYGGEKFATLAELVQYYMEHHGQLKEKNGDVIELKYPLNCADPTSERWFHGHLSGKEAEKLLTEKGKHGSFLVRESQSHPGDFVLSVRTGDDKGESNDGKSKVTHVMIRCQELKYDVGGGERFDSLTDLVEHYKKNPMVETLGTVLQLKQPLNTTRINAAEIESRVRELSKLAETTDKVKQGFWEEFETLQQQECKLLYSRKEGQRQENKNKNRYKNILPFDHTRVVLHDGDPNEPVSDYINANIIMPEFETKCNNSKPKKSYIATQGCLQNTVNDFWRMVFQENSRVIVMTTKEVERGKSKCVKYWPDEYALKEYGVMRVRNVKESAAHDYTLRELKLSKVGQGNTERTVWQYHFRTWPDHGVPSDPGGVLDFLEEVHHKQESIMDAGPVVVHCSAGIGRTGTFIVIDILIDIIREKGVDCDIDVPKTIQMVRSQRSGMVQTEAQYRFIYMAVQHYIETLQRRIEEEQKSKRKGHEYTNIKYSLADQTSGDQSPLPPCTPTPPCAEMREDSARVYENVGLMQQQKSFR
Test: SHP2 Phosphatase Assay (DiFMUP fluorescence)
Type: biochemical
Details: SHP2 0.2 nM pre-incubated with 100 nM bi-phosphorylated activating peptide; compound 1000-0.05 nM, 30 min pre-incubation; DiFMUP 20 µM, 45 min, room temperature; 10-concentration dose-response
In short: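 SHP2 (0.2 nM) preactivated ≥10 min with 100 nM bis-phosphorylated peptide, then 30 min with compound (10 concentrations, 1000–0.05 nM) at room temperature, pH 7.2 HEPES buffer with DTT. DiFMUP (20 µM, added solution) reacted 45 min, pervanadate-stopped; fluorescence 350/450 nm. IC50 by 4-parameter logistic fit.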

Structure (SMILES)	IC50 [nM]
Cc1nc(N2CCC3(CC2)Cc2ncccc2[C@H]3N)c2ccnn2c1-c1cccc2c1ccn2C [Compound 182, (5S)-1'-[6-methyl-7-(1-methylindol-4-yl)pyrazolo[1,5-a]pyrazin-4-yl]spiro[5,7-dihydrocyclopenta[b]pyridine-6,4'-piperidine]-5-amine]	23
Cc1nc(N2CCC3(CC2)Cc2ncccc2[C@H]3N)c2ccnn2c1-c1ccnnc1 [Compound 159, (5S)-1'-(6-methyl-7-pyridazin-4-yl-pyrazolo[1,5-a]pyrazin-4-yl)spiro[5,7-dihydrocyclopenta[b]pyridine-6,4'-piperidine]-5-amine hydrochloride]	649
Cc1nc(N2CCC3(CC2)Nc2ccccc2[C@H]3N)c2ccnn2c1-c1ccccc1F [Compound 153, (3R)-1'-[7-(2-fluorophenyl)-6-methyl-pyrazolo[1,5-a]pyrazin-4-yl]spiro[indoline-2,4'-piperidine]-3-amine hydrochloride]	15
COc1ccc2c(n1)[C@H](N)C1(CCN(c3nc(C)c(-c4cccc(F)c4F)n4nccc34)CC1)C2 [Compound 214, (7R)-1'-[7-(2,3-difluorophenyl)-6-methyl-pyrazolo [1,5-a]pyrazin-4-yl]-2-methoxy-spiro[5,7-dihydrocyclopenta[b]pyridine-6,4'-piperidine]-7-amine]	594
Cc1nc(N2CCC3(CC2)Cc2nc(CO)ccc2[C@H]3N)c2ccnn2c1-c1ccccc1 [Compound 223, [(5S)-5-amino-1'-(6-methyl-7-phenyl-pyrazolo[1,5-a]pyrazin-4-yl)spiro[5,7-dihydrocyclopenta[b]pyridine-6,4'-piperidine]-2-yl]methanol]	13
Cc1nc2c(s1)[C@@H](N)C1(CCN(c3nc(C)c(-c4ccc5nccnc5c4Cl)n4nccc34)CC1)C2 [Compound 81, (6S)-1'-[7-(5-chloroquinoxalin-6-yl)-6-methyl-pyrazolo[1,5-a]pyrazin-4-yl]-2-methyl-spiro [4,6-dihydrocyclopenta[d]thiazole-5,4'-piperidine]-6-amine hydrochloride]	4
Cc1nc(N2CCC3(CC2)Cc2nc(C(F)F)ccc2[C@H]3N)c2ccnn2c1-c1cnn(C)c1C [Compound 61, (5S)-2-(difluoromethyl)-1'-[7-(1,5-dimethylpyrazol-4-yl)-6-methyl-pyrazolo[1,5-a]pyrazin-4-yl]spiro [5,7-dihydrocyclopenta[b]pyridine-6,4'-piperidine]-5-amine]	211
Cc1nc(N2CCC3(CC2)Cc2ncccc2[C@@H]3N)c2ccnn2c1-c1ccccc1F [Compound 136, (5R)-1'-[7-(2-fluorophenyl)-6-methyl-pyrazolo[1,5-a]pyrazin-4-yl]spiro[5,7-dihydrocyclopenta[b]pyridine-6,4'-piperidine]-5-amine]	383
COc1ccc(Cl)c(-c2c(C)nc(N3CCC4(CC3)Cc3ncccc3[C@H]4N)c3ccnn23)c1 [Compound 173, (5S)-1'-[7-(2-chloro-5-methoxy-phenyl)-6-methyl-pyrazolo[1,5-a]pyrazin-4-yl]spiro[5,7-dihydrocyclopenta[b]pyridine-6,4'-piperidine]-5-amine]	15
Cc1nc(N2CCC3(CC2)Cc2cccnc2[C@H]3N)c2ccnn2c1-c1cccc(F)c1Cl [Compound 12, (7S)-1'-[7-(2-chloro-3-fluorophenyl)-6-methyl-pyrazolo[1,5-a]pyrazin-4-yl]spiro[5,7-dihydrocyclopenta[b]pyridine-6,4'-piperidine]-7-amine]	14
Cc1nc(N2CCC3(CC2)Cc2ncccc2[C@H]3N)c2ccnn2c1-c1ccncc1 [Compound 70, (5S)-1'-[6-methyl-7-(4-pyridyl)pyrazolo[1,5-a]pyrazin-4-yl]spiro[5,7-dihydrocyclopenta[b]pyridine-6,4'-piperidine]-5-amine hydrochloride]	73

From patent publication EP4227307A1 (Genzyme Corporation, priority 2022, dated 2023)
